{"source": "patent US20250231108A1", "about": "“TR[…]” (SUMITOMO CHEMICAL COMPANY, LIMITED, priority 2022, published 2025)", "system": "TA1537", "assay": "Ames test (Ames MPF microplate format) without metabolic activation, toxicity to tester assessed by transparency index T from plate image", "conditions": "for transparency index T: TA1537, no metabolic activation, average of three assessment plates, FIG. 14, T smaller than 1 means high transparency (cells dead)", "experimental": "A tester (bacterium having amino acid-requiring mutation, for example, Salmonella typhimurium: a TA100 strain, a TA98 strain, a TA1535 strain, or a TA1537 strain, Escherichia coli: a WP2uvrA strain or the like) that is used is inoculated in 60 mL of Nutrient broth medium, and is shaken and cultured at 37° C. for 9 to 10 hours to be proliferated.\nThe test substance prepared in the step 2A is dissolved or suspended in an adequate medium, and the resultant solution is diluted by using the medium in staged to prepare concentration series of the test substance solution. In a case where the same test substance is assessed with six concentrations different from each other, six test substance solutions having concentrations different from each other are prepared.\nThe medium used in preparation of the test substance solution, the concentration series of the test substance solution, and the solution of the positive control compound (collectively referred to as “test substance solution or the like”) are put into individual wells of a 24-well plate (a plate having 24 wells) by 10 μL.\n0.175 to 0.7 mL of the tester culture solution (typically at a concentration exceeding 1×10^9 cells/mL) and 6.83 to 6.3 mL of a medium (minimal medium in which a carbon source is added and which is deficient in amino acid) are mixed. The resultant mixture is referred to as a preparation bacterial solution under conditions of the absence of metabolic activation. […]\nSpecifically, first, an angle θ1 between the centroid vector V1 and the first reference vector V2 and an angle θ2 between the centroid vector V1 and the second reference vector V3 are compared. In a case where the angle θ1 is equal to or smaller than the angle θ2, a transparency index T is calculated based on an expression (1). In a case where the angle θ2 is larger than the angle θ1, the transparency index T is calculated based on an expression (2). […]"}
{"molecule": "ClCc1ccc(Cl)cc1", "note": "[4-chlorobenzyl chloride]", "values": [{"measurement": "toxicity to the tester (cells)", "setting": "TA1537, 1.95-2,000 μg/mL in DMSO, no metabolic activation, conclusion from transparency index T", "value": "toxic to the tester"}, {"measurement": "transparency index T", "setting": "section Se6, test substance 500 μg/mL", "value": "reduced"}, {"measurement": "transparency index T", "setting": "section Se7, test substance 2,000 μg/mL", "value": "reduced"}]}
